The record followed here is ChEMBL document CHEMBL1123466, “Selective thromboxane synthetase inhibitors. 3. 1H-imidazol-1-yl-substituted benzo[b]furan-, benzo[b]thiophene-, and indole-2- and -3-carboxylic acids” (J Med Chem, 1986).

In the first data set the target is T1, Cytochrome P450 11B1, mitochondrial (Rattus norvegicus, UniProt P15393).
T1 sequence (P15393 whole entry): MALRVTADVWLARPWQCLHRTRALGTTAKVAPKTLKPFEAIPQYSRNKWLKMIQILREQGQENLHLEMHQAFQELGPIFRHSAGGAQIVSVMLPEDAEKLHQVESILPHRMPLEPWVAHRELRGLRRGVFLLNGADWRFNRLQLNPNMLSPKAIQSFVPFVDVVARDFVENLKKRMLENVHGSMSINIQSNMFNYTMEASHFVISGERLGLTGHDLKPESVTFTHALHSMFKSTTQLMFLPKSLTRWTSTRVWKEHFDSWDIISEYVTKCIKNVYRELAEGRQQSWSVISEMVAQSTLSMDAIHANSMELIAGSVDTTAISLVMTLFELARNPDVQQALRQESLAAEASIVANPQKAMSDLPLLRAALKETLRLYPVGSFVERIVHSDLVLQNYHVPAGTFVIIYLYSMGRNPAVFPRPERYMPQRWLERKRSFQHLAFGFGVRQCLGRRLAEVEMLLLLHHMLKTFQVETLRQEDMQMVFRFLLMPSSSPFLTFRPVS
The experiment in a line: Effect on adrenal 11-beta-hydroxylase activity at 10e-4 M; No significant effect.
As for `Cc1c(C(=O)O)sc2cc(Cn3ccnc3)ccc12`, the Effect result is recorded as “No effect”.

The target in another data set is Prostaglandin G/H synthase (cyclooxygenase) (Ovis aries) (UniProt P05979+P79208). Kind of data set: Effect on ram seminal vesicle cyclooxygenase activity at 10e-4 M; no significant effect. Format: tissue-based.
Sequence of Prostaglandin G/H synthase (cyclooxygenase) (Ovis aries) (P05979 whole entry, looked up): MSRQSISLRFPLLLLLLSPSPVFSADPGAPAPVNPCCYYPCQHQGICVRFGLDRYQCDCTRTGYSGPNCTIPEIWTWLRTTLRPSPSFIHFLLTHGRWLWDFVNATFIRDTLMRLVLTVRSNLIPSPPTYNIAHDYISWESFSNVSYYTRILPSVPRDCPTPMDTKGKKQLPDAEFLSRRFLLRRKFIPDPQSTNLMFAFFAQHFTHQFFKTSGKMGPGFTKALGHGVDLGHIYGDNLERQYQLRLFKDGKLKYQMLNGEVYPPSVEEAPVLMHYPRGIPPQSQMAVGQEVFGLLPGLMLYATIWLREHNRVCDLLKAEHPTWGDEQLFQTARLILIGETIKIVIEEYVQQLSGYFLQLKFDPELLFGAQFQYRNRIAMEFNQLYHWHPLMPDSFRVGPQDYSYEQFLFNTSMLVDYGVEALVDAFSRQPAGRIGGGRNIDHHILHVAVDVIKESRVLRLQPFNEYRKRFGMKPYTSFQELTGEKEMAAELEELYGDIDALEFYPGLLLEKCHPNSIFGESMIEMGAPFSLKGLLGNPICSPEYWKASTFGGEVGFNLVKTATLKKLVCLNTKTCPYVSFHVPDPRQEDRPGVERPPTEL
Sequence of Prostaglandin G/H synthase (cyclooxygenase) (Ovis aries) (P79208 whole entry, looked up): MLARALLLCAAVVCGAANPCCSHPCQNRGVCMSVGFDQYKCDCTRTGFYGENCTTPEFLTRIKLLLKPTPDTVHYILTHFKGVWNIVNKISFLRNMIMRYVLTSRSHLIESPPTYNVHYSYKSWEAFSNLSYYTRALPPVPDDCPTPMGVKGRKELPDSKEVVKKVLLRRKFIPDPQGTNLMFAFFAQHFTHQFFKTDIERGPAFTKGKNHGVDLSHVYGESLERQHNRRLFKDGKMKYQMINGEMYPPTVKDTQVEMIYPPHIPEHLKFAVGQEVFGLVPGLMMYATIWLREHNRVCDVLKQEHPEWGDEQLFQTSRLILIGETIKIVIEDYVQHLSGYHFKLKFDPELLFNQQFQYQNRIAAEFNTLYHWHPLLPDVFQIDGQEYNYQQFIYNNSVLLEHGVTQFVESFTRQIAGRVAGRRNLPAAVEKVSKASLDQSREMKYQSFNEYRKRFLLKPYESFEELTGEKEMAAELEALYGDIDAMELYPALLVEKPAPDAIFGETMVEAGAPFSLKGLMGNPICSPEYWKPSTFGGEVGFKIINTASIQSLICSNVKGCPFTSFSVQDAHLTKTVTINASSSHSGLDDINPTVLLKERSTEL
Take `Cc1c(C(=O)O)sc2cc(Cn3ccnc3)ccc12`: the Effect result was “No effect”.

The target of a further data set is T2, Thromboxane-A synthase (Homo sapiens, UniProt P24557).
T2 sequence (P24557 whole entry): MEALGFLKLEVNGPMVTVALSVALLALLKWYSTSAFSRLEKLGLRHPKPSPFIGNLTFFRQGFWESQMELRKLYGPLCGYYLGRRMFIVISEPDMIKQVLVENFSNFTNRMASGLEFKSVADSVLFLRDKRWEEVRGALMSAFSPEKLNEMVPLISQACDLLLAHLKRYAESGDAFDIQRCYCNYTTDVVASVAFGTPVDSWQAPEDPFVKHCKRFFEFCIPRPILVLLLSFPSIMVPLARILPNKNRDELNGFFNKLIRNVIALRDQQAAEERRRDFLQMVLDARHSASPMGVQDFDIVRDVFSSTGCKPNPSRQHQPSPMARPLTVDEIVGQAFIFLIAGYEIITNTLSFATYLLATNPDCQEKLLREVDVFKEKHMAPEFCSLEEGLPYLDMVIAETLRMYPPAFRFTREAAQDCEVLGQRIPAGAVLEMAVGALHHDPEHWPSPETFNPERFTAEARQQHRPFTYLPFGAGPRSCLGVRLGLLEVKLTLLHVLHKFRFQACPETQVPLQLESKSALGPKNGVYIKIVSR
Kind of data set: In vitro inhibition of thromboxane synthase from human platelets.
`O=C(O)COc1ccc(Cn2ccnc2)cc1` yielded an IC50 of 31 nM.
Same read-out and setting: then `Cc1c(C(=O)O)sc2ccc(Cn3ccnc3)cc12`, with 29 nM.
On the same count and under the same terms, then `O=C(O)c1sc2cc(Cn3ccnc3)ccc2c1Cl`, with 7.4 nM; and `O=C(O)c1csc2c(Cn3ccnc3)cccc12`, with 34 nM.
`Cc1c(C(=O)O)sc2cc(Cn3ccnc3)ccc12` gave an IC50 of 5.2 nM.
On the same count and under the same terms, for `O=C(O)c1csc2cc(Cn3ccnc3)ccc12` the value was 19 nM; for `Cc1c(C(=O)O)sc2cc(OCCn3ccnc3)ccc12`, 140 nM; for `O=C(O)c1cc2cc(Cn3ccnc3)ccc2s1`, 21 nM.
The same measure, in the same setting: for `O=C(O)c1cc2cc(OCCn3ccnc3)ccc2s1` the value was 420 nM; for `O=C(O)c1csc2ccc(Cn3ccnc3)cc12`, 1700 nM.
The compound `COc1cc(Cn2ccnc2)cc2sc(C(=O)O)cc12` registered an IC50 of 5 nM.
In the case of `O=C(O)c1cc2cc(Cn3ccnc3)ccc2[nH]1`, the IC50 was found to be 5 nM.
The same measure, in the same setting: for `O=C(O)c1cc2c(O)cc(Cn3ccnc3)cc2s1` the value was 52 nM; for `O=C(O)c1cc2ccc(Cn3ccnc3)cc2s1`, 18 nM; for `O=C(O)c1cc2ccc(Cn3ccnc3)cc2o1`, 20 nM.
The same measure, in the same setting: for `O=C(O)c1cc2ccc(Cn3ccnc3)cc2[nH]1` the value was 33 nM; for `O=C(O)c1cc2cccc(Cn3ccnc3)c2s1`, 120 nM.
Still for that read-out and setting: then `O=C(O)c1cc2cc(Cn3ccnc3)ccc2o1`, with 34 nM.

The test system of the next data set is Prostacyclin synthase (Sus scrofa). Kind of data set: Effect on porcine aorta prostacyclin (PGI-2) synthase activity at 10e-4 M; No significant effect.
Consider `Cc1c(C(=O)O)sc2cc(Cn3ccnc3)ccc12`, for which the Effect result was “No effect”.

Usually IC50 stands for the midpoint of a concentration-inhibition curve.
